Data as given in ChEMBL document CHEMBL3108668, “Antitumor activity of jujuboside B and the underlying mechanism via induction of apoptosis and autophagy” (J Nat Prod, 2014).
The source made the active and inactive calls. No cut-off for these calls is given here.

Experiments:
AGS [1] = test: Induction of apoptosis in human AGS cells assessed as increase in LC3-2 level at 50 uM after 24 hrs by Western blotting analysis in presence of bafilomycin A1; assay type: functional, cell-based
AGS [2] = test: Induction of apoptosis in human AGS cells assessed as increase in FasL level at 100 uM after 24 hrs by Western blotting analysis in presence of bafilomycin A1; assay type: functional, cell-based
AGS [3] = test: Induction of apoptosis in human AGS cells assessed as increase in pp38 level at 100 uM after 24 hrs by Western blotting analysis in presence of bafilomycin A1; assay type: functional, cell-based
AGS [4] = test: Induction of apoptosis in human AGS cells assessed as reduction of caspase3 activation at 100 uM after 24 hrs by Western blotting analysis in presence of bafilomycin A1; assay type: functional, cell-based
AGS [5] = test: Induction of apoptosis in human AGS cells assessed as reduction of caspase8 activation at 100 uM after 24 hrs by Western blotting analysis in presence of bafilomycin A1; assay type: functional, cell-based
HCT-116 [6] = test: Induction of autophagy in human HCT116 cells assessed as massive vacuole formation at 50 uM after 24 hrs by acridine orange staining-based fluorescence microscopy in presence of bafilomycin A1; assay type: functional, cell-based
HCT-116 [7] = test: Induction of autophagy in human HCT116 cells assessed as massive vacuole formation at 50 uM after 24 hrs by acridine orange staining-based fluorescence microscopy; assay type: functional, cell-based
HCT-116 [8] = test: Induction of autophagy in human HCT116 cells assessed as massive vacuole formation at 50 uM after 24 hrs by fluorescence microscopy; assay type: functional, cell-based
AGS [9] = test: Induction of apoptosis in human AGS cells assessed as reduction of FasL level at 100 uM after 24 hrs by Western blotting analysis in presence of SP600125; assay type: functional, cell-based
AGS [10] = test: Induction of apoptosis in human AGS cells assessed as reduction of FasL level at 100 uM after 24 hrs by Western blotting analysis in presence of SB202190; assay type: functional, cell-based
AGS [11] = test: Induction of apoptosis in human AGS cells assessed as reduction of caspase8 activation at 100 uM after 24 hrs by Western blotting analysis in presence of SB202190; assay type: functional, cell-based
AGS [12] = test: Induction of apoptosis in human AGS cells assessed as increase in pp38 level at 25 to 150 uM after 24 hrs by Western blotting analysis; assay type: functional, cell-based
AGS [13] = test: Induction of apoptosis in human AGS cells assessed as increase in FasL level at 25 to 150 uM after 24 hrs by Western blotting analysis; assay type: functional, cell-based
AGS [14] = test: Induction of apoptosis in human AGS cells assessed as caspase-8 activation at 25 to 150 uM after 24 hrs by Western blotting analysis; assay type: functional, cell-based
Mus musculus = test: Toxicity in BALB/c nude mouse xenografted with human HCT116 cells assessed as change in body weight at 40 mg/kg, ip administered 3 times a week for 5 weeks; assay type: organism-based, HCT-116; design: dose 40 mg/kg, route intraperitoneal; conditions: in vivo, 840 h
HCT-116 [15] = test: Antitumor activity against human HCT116 cells xenografted in BALB/c nude mouse at 40 mg/kg, ip administered 3 times a week for 5 weeks relative to control; assay type: functional; conditions: route intraperitoneal
HCT-116 [16] = test: Cell cycle arrest in human HCT116 cells assessed as accumulation at sub G1 phase after 24 hrs by propidium iodide staining-based flow cytometry; assay type: functional
HCT-116 [17] = test: Induction of apoptosis in human HCT116 cells assessed as apoptotic cells after 24 hrs by annexin V-FITC/propidium iodide staining-based flow cytometry; assay type: functional, cell-based
AGS [18] = test: Cell cycle arrest in human AGS cells assessed as accumulation at sub G1 phase at 100 uM after 24 hrs by propidium iodide staining-based flow cytometry; assay type: functional
AGS [19] = test: Induction of apoptosis in human AGS cells assessed as apoptotic cells at 25 uM after 24 hrs by annexin V-FITC/propidium iodide staining-based flow cytometry; assay type: functional
HCT-116 [20] = test: Induction of apoptosis in human HCT116 cells assessed as necrotic cells at 150 uM after 24 hrs by annexin V-FITC/propidium iodide staining-based flow cytometry (reference value: 0.68%); assay type: functional
HCT-116 [21] = test: Induction of apoptosis in human HCT116 cells assessed as necrotic cells at 25 uM after 24 hrs by annexin V-FITC/propidium iodide staining-based flow cytometry (reference value: 0.68%); assay type: functional
HCT-116 [22] = test: Induction of apoptosis in human HCT116 cells assessed as late apoptotic cells at 100 uM after 24 hrs by annexin V-FITC/propidium iodide staining-based flow cytometry (reference value: 2.71%); assay type: functional
HCT-116 [23] = test: Induction of apoptosis in human HCT116 cells assessed as early apoptotic cells at 100 uM after 24 hrs by annexin V-FITC/propidium iodide staining-based flow cytometry (reference value: 3.61%); assay type: functional
AGS [24] = test: Induction of apoptosis in human AGS cells assessed as necrotic cells at 150 uM after 24 hrs by annexin V-FITC/propidium iodide staining-based flow cytometry (reference value: 0.12%); assay type: functional
AGS [25] = test: Induction of apoptosis in human AGS cells assessed as necrotic cells at 100 uM after 24 hrs by annexin V-FITC/propidium iodide staining-based flow cytometry (reference value: 0.12%); assay type: functional
AGS [26] = test: Induction of apoptosis in human AGS cells assessed as late apoptotic cells at 150 uM after 24 hrs by annexin V-FITC/propidium iodide staining-based flow cytometry (reference value: 7.3%); assay type: functional
AGS [27] = test: Induction of apoptosis in human AGS cells assessed as late apoptotic cells at 100 uM after 24 hrs by annexin V-FITC/propidium iodide staining-based flow cytometry (reference value: 7.3%); assay type: functional
AGS [28] = test: Induction of apoptosis in human AGS cells assessed as late apoptotic cells at 50 uM after 24 hrs by annexin V-FITC/propidium iodide staining-based flow cytometry (reference value: 7.3%); assay type: functional
AGS [29] = test: Induction of apoptosis in human AGS cells assessed as early apoptotic cells at 50 uM after 24 hrs by annexin V-FITC/propidium iodide staining-based flow cytometry (reference value: 6.6%); assay type: functional
AGS [30] = test: Induction of apoptosis in human AGS cells assessed as early apoptotic cells at 25 uM after 24 hrs by annexin V-FITC/propidium iodide staining-based flow cytometry (reference value: 6.6%); assay type: functional
HCT-116 [31] = test: Induction of apoptosis in human HCT116 cells assessed as cell shrinkage at >100 uM after 24 hrs by acridine orange staining-based microscopy; assay type: functional
AGS [32] = test: Induction of apoptosis in human AGS cells assessed as membrane blebbing at >100 uM after 24 hrs by acridine orange staining-based microscopy; assay type: functional, cell-based
AGS [33] = test: Cytotoxicity against human AGS cells after 24 hrs by MTT assay; assay type: functional, cell-based
AGS [34] = test: Induction of autophagy in human AGS cells assessed as massive vacuole formation at 50 uM after 24 hrs by acridine orange staining-based fluorescence microscopy; assay type: functional, cell-based
AGS [35] = test: Induction of apoptosis in human AGS cells assessed as reduction of caspase3 activation at 100 uM after 24 hrs by Western blotting analysis in presence of SB202190; assay type: functional, cell-based
AGS [36] = test: Induction of apoptosis in human AGS cells assessed as reduction of caspase3 activation at 100 uM after 24 hrs by Western blotting analysis in presence of SP600125; assay type: functional, cell-based

## CC(C)=C[C@H]1C[C@](C)(O)[C@@H]2[C@H]3CC[C@@H]4[C@@]5(C)CC[C@H](O[C@@H]6OC[C@H](O)[C@H](O[C@@H]7O[C@H](CO)[C@@H](O)[C@H](O)[C@H]7O[C@@H]7OC[C@@H](O)[C@H](O)[C@H]7O)[C@H]6O[C@@H]6O[C@@H](C)[C@H](O)[C@@H](O)[C@H]6O)C(C)(C)[C@@H]5CC[C@@]4(C)[C@@]34CO[C@@]2(C4)O1
AGS [1]
  Activity: Active
AGS [2]
  Activity: Active
AGS [3]
  Activity: Active
AGS [4]
  Activity: Active
AGS [5]
  Activity: Active
HCT-116 [6]
  Activity: inactive
HCT-116 [7]
  Activity: Active
HCT-116 [8]
  Activity: Active
AGS [9]
  Activity: inactive
AGS [10]
  Activity: inactive
AGS [11]
  Activity: inactive
AGS [12]
  Activity: Active
AGS [13]
  Activity: Active
AGS [14]
  Activity: Active
Mus musculus
  Activity: Non-toxic
HCT-116 [15]
  Activity: 60%
HCT-116 [16]
  Activity: Dose-dependent effect
HCT-116 [17]
  Activity: Dose-dependent effect
AGS [18]
  Activity: 8.29%
AGS [19]
  Activity: 10.81%
HCT-116 [20]
  Activity: 5.1%
HCT-116 [21]
  Activity: 0.67%
HCT-116 [22]
  Activity: 9.74%
HCT-116 [23]
  Activity: 37.59%
AGS [24]
  Activity: 1.57%
AGS [25]
  Activity: 1.06%
AGS [26]
  Activity: 12.12%
AGS [27]
  Activity: 12.44%
AGS [28]
  Activity: 7.05%
AGS [29]
  Activity: 8.73%
AGS [30]
  Activity: 5.57%
HCT-116 [31]
  Activity: Active
AGS [32]
  Activity: Active
AGS [33]
  Activity: Dose-dependent effect
  IC50: 107 µM
AGS [34]
  Activity: Active
AGS [35]
  Activity: inactive
AGS [36]
  Activity: inactive
